Laboratory results: US20250195521A1 (Revolution Medicines, Inc., priority 2020, published 2025)
Values joined by “and” are separate entries in the source; they are usually repeats but may differ in a detail not shown here. Equal values may be shown once. Read-outs that look alike come from different tables or passages of the source.

Assays:
[1] = test system: Capan-1 cells (K-Ras G12V); experiment: CellTiter-Glo cell viability, Capan-1; type: cell-based, human; conditions: Homo sapiens, CAPAN-1, 120 h, K-Ras G12V, 5-day treatment; read-out: Capan-1 Cell Viability IC50
In short: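 Viability read by luminescence on day 5 after direct compound addition to cells, following ~30 min room-temperature equilibration. Values expressed as percent of mean DMSO signal, curves fitted with a four-parameter logistic model.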

KRAS G12C = KRAS G12C (Homo sapiens (Human), UniProt P01116+P62937, G12C); experiment: Ras-Raf disruption/FRET/MOA assay (BRAF RBD, Cyclophilin A); type: biochemical; conditions: read-out: KRAS G12C FRET IC50
In short: (§1)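 TR-FRET readout: anti-His Eu-W1024 (10 nM) and anti-GST allophycocyanin (50 nM) added after 3 h, 25° C compound incubation, then 1.5 h more. Decrease in FRET ratio versus DMSO wells marks Ras:RAF disruption; IC50 reported.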

[2] = test system: K-Ras G12C (NCI-H358 cells); experiment: Potency assay: pERK in NCI-H358 cells; type: cell-based, human; conditions: NCI-H358 cells, 4 hours, read-out: pERK EC50 (H358 KRAS G12C)
In short: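 Cells plated the day before were exposed for 4 h at 37° C, 5% CO2 to a 10-point, 3-fold DMSO dilution series (10 mM top stock), in duplicate. Phospho-ERK was read by AlphaLISA SureFire Ultra or by In-Cell Western with DRAQ5 DNA stain, and IC50 came from a 4-parameter sigmoidal fit.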

NCI-H358 (K-Ras G12C) = experiment: CellTiter-Glo cell viability assay, NCI-H358; type: cell-based, human; conditions: 5-day treatment, read-out: H358 Cell Viability assay data (K-Ras G12C, IC50)
In short: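 Viability read-out was luminescent (CellTiter-Glo) on day 5 of compound exposure in K-Ras G12C NCI-H358 cells. Values were expressed as percent of mean DMSO signal and fitted with a four-parameter logistic curve.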

[3] = biological target: K-Ras G12C(GMP-PNP) binding to BRAF RBD (Homo sapiens (Human), UniProt P01116+P62937, G12C); experiment: Disruption of BRAF RBD interaction with K-Ras (FRET / MOA assay), K-Ras G12C; type: biochemical
Source text: Note—The following protocol describes a procedure for monitoring disruption of K-Ras G12C(GMP-PNP) binding to BRAF^RBD by a compound of the invention. This protocol may also be executed substituting other Ras proteins or nucleotides.
The purpose of this biochemical assay was to measure the ability of test compounds to facilitate ternary complex formation between a nucleotide-loaded K-Ras isoform and Cyclophilin A; the resulting ternary complex disrupts binding to a BRAF^RBD construct, inhibiting K-Ras signaling through a RAF effector. Data is reported as IC50 values.
Compound was present in plate wells as a 10-point 3-fold dilution series starting at a final concentration of 30 μM. After incubation at 25° C. for 3 hours, a mixture of Anti-His Eu—W1024 and anti-GST allophycocyanin was then added to assay sample wells at final concentrations of 10 nM and 50 nM, respectively, and the reaction incubated for an additional 1.5 hours. […] Compounds that facilitate disruption of a K-Ras: RAF complex were identified as those eliciting a decrease in the TR-FRET ratio relative to DMSO control wells.

KRAS G12D = KRAS G12D (Homo sapiens (Human), UniProt P01116+P62937, G12D); experiment: Ras-Raf disruption/FRET/MOA assay (BRAF RBD, Cyclophilin A); type: biochemical; conditions: read-out: KRAS G12D FRET IC50
In short: as §1

KRAS G13C = KRAS G13C (Homo sapiens (Human), UniProt P01116+P62937, G13C); experiment: as above; type: biochemical; conditions: read-out: KRAS G13C FRET IC50
In short: as §1

KRAS G13D = KRAS G13D (Homo sapiens (Human), UniProt P01116+P62937, G13D); experiment: as above; type: biochemical; conditions: read-out: KRAS G13D FRET data IC50
In short: as §1

KRAS WT = KRAS WT (Homo sapiens (Human), UniProt P01116+P62937); experiment: as above; type: biochemical; conditions: read-out: KRAS WT FRET data IC50
In short: as §1

KRAS G12S = KRAS G12S (Homo sapiens (Human), UniProt P01116+P62937, G12S); experiment: as above; type: biochemical; conditions: read-out: KRAS G12S FRET IC50
In short: as §1

NRAS G12C = NRAS G12C (Homo sapiens (Human), UniProt P01111+P62937, G12C); experiment: as above; type: biochemical; conditions: read-out: NRAS G12C FRET data IC50
In short: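 Measured: compound-facilitated Cyclophilin A:Ras complex blocking RAF RBD binding. Conditions: 12.5 nM Ras-GMPPNP, 50 nM BRAF RBD, 25 μM CypA, 3 h plus 1.5 h detection. Output: IC50 from TR-FRET ratio.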

KRAS G12V = KRAS G12V (Homo sapiens (Human), UniProt P01116+P62937, G12V); experiment: as above; type: biochemical; conditions: read-out: KRAS G12V FRET IC50
In short: as §1

Chain of K-Ras G12C(GMP-PNP) binding to BRAF RBD (P01116 other isoform, or with tags, fused parts or gaps G12C): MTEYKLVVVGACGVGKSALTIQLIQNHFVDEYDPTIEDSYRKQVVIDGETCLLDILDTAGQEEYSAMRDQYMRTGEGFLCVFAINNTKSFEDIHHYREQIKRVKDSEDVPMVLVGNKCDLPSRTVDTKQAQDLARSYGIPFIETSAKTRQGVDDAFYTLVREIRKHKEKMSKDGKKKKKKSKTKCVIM
Chain of K-Ras G12C(GMP-PNP) binding to BRAF RBD (P62937 whole entry): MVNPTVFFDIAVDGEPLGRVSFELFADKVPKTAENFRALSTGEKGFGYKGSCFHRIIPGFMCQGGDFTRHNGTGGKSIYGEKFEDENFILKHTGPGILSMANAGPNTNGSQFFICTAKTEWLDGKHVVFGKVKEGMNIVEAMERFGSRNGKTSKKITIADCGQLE
Chain of KRAS G13D (P01116 other isoform, or with tags, fused parts or gaps G13D): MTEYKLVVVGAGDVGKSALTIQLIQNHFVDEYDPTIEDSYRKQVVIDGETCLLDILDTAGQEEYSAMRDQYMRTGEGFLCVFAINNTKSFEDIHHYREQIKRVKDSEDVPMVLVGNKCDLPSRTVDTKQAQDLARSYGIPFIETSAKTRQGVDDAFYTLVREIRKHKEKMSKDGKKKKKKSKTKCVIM
Chain of KRAS G13D (P62937 whole entry): as the sequence (P62937 whole entry) above
Chain of KRAS G12S (P01116 other isoform, or with tags, fused parts or gaps G12S): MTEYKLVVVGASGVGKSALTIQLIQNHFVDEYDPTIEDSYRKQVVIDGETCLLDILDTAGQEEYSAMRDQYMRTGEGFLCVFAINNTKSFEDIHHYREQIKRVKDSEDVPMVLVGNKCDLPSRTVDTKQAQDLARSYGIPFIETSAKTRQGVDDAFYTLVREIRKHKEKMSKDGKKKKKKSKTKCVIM
Chain of KRAS G12S (P62937 whole entry): as the sequence (P62937 whole entry) above
Chain of NRAS G12C (P01111 whole entry G12C): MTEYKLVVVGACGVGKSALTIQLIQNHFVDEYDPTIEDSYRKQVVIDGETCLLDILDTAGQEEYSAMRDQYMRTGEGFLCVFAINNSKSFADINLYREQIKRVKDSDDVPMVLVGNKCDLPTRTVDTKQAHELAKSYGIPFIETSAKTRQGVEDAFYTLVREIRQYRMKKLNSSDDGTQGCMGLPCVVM
Chain of NRAS G12C (P62937 whole entry): as the sequence (P62937 whole entry) above
Chain of KRAS G12C (P01116-2 other isoform, or with tags, fused parts or gaps G12C): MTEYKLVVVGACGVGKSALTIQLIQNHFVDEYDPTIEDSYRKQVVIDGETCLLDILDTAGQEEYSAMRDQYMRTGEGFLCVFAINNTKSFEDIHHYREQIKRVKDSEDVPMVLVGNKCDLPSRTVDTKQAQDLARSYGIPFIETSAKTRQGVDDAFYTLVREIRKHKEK
Chain of KRAS G12C (P62937 whole entry): as the sequence (P62937 whole entry) above
Chain of KRAS WT (P01116 other isoform, or with tags, fused parts or gaps): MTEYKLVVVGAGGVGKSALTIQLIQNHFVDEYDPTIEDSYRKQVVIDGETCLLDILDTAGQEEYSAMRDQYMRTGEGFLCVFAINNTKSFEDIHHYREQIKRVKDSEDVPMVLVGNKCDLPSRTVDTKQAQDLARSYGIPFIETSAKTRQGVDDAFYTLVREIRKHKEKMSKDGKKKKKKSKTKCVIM
Chain of KRAS WT (P62937 whole entry): as the sequence (P62937 whole entry) above
Chain of KRAS G13C (P01116 other isoform, or with tags, fused parts or gaps G13C): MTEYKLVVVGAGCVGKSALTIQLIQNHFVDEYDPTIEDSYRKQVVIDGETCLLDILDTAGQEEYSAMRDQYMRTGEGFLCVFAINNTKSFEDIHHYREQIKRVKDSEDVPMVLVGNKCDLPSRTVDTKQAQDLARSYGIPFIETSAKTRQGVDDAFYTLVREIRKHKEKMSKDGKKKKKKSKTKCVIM
Chain of KRAS G13C (P62937 whole entry): as the sequence (P62937 whole entry) above
Chain of KRAS G12D (P01116 other isoform, or with tags, fused parts or gaps G12D): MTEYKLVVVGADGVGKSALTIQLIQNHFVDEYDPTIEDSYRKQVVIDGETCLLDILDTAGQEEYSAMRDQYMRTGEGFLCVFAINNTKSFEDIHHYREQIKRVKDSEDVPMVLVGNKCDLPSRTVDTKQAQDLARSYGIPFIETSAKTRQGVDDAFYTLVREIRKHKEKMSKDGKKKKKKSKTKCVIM
Chain of KRAS G12D (P62937 whole entry): as the sequence (P62937 whole entry) above
Chain of KRAS G12V (P01116 other isoform, or with tags, fused parts or gaps G12V): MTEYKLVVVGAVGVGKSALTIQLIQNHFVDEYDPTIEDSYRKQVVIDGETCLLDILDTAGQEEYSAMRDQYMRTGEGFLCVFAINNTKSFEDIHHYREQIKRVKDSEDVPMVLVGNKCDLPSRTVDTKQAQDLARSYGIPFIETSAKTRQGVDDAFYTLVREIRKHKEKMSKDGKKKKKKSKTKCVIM
Chain of KRAS G12V (P62937 whole entry): as the sequence (P62937 whole entry) above

Compound | IC50 [1] [nM] | IC50 (KRAS G12C) [nM] | EC50 ([2]; Homo sapiens) [nM] | IC50 (NCI-H358 (K-Ras G12C); Homo sapiens, NCI-H358, 120 h) [nM] | IC50 ([3]; read-out: KRAS G12C FRET IC50) | IC50 (KRAS G12D) [nM] | IC50 (KRAS G13C) [nM] | also measured
CCn1c(-c2cccnc2[C@H](C)OC)c2c3cc(ccc31)-c1cc(O)cc(c1)C[C@H](NC(=O)[C@H](C(C)C)N(C)C(=O)[C@@H]1CNC[C@@H]1C)C(=O)N1CCC[C@H](N1)C(=O)OCC(C)(C)C2 [Compound A128] | > 10000 | 10 to 100 | < 5000 | < 10 | 10 to 100 nM |  |  | 
CCn1c(-c2cccnc2[C@H](C)OC)c2c3cc(ccc31)-c1cc(O)cc(c1)C[C@H](NC(=O)[C@H](C(C)C)N(C)C(=O)[C@H]1CCN(C(=O)[C@@]3(C)CCCN3)C1)C(=O)N1CCC[C@H](N1)C(=O)OCC(C)(C)C2 [Compound A135] | 1000 to 10000 |  |  | < 10 | < 10 nM |  |  | IC50 (NCI-H358 (K-Ras G12C)): 10 to 100 nM
CCn1c(-c2cccnc2[C@H](C)OC)c2c3cc(ccc31)-c1cc(O)cc(c1)C[C@H](NC(=O)[C@H](C(C)C)N(C)C(=O)C1(CN)CC1)C(=O)N1CCC[C@H](N1)C(=O)OCC(C)(C)C2 [Compound A139] |  | 10 to 100 |  | 100 to 1000 | 10 to 100 nM | 10 to 100 | 10 to 100 | IC50 (KRAS G13D): 10 to 100 nM; IC50 (KRAS WT): 10 to 100 nM
CCn1c(-c2cccnc2[C@H](C)OC)c2c3cc(ccc31)-c1csc(n1)C[C@H](NC(=O)[C@H](C(C)C)N1CCCC1=O)C(=O)N1CCC[C@H](N1)C(=O)OCC(C)(C)C2 [Compound A212] | > 10000 | 1000 to 10000 |  |  | 100 to 1000 nM and 1000 to 10000 nM | > 10000 | 1000 to 10000 | IC50 (KRAS G12S): > 10000 nM; IC50 (KRAS G13D): > 10000 nM; IC50 (KRAS WT): > 10000 nM; IC50 (NRAS G12C): 1000 to 10000 nM
CCn1c(-c2cnccc2COC)c2c3cc(ccc31)-c1cc(O)cc(c1)C[C@H](NC(=O)[C@H](C(C)C)N(C)C(=O)[C@H]1CN(C(C)=O)C[C@H]1C(F)(F)F)C(=O)N1CCC[C@H](N1)C(=O)OCC(C)(C)C2 [Compound A215] | > 10000 | 100 to 1000 |  |  | 100 to 1000 nM and > 10000 nM | 1000 to 10000 | 10 to 100 | IC50 (KRAS G12S): 100 to 1000 nM; IC50 (KRAS G12V): 100 to 1000 nM; IC50 (KRAS G13D): 100 to 1000 nM; IC50 (KRAS WT): 100 to 1000 nM; IC50 (NRAS G12C): 100 to 1000 nM
CCn1c(-c2cccnc2[C@H](C)OC)c2c3cc(ccc31)-c1csc(n1)C[C@H](NC(=O)[C@H](C(C)C)N1CCC3(CCN(S(C)(=O)=O)C3)C1=O)C(=O)N1CCC[C@H](N1)C(=O)OCC(C)(C)C2 (some centres unmarked) [Compound A220] |  | 1000 to 10000 |  | > 10000 |  | > 10000 | 1000 to 10000 | IC50 (KRAS G12S): 1000 to 10000 nM; IC50 (KRAS G12V): 1000 to 10000 nM; IC50 (KRAS G13D): > 10000 nM; IC50 (KRAS WT): 1000 to 10000 nM; IC50 (NRAS G12C): 1000 to 10000 nM; IC50 ([3]; KRAS G12C FRET IC50): 100 to 1000 nM and 1000 to 10000 nM
CCn1c(-c2cccnc2[C@H](C)OC)c2c3cc(ccc31)-c1csc(n1)C[C@H](NC(=O)[C@H](C(C)C)N(C)C(=O)N1CCN(C(=O)CN(C)C)CC1)C(=O)N1CCC[C@H](N1)C(=O)OCC(C)(C)C2 [Compound A290] |  |  | < 5000 | < 10 | < 10 nM |  |  | 
CCn1c(-c2cccnc2[C@H](C)OC)c2c3cc(ccc31)-c1csc(n1)C[C@H](NC(=O)[C@H](C(C)C)N(C)C(=O)N1CCCOCC1)C(=O)N1CCC[C@H](N1)C(=O)OCC(C)(C)C2 [Compound A335] |  |  | < 5000 | 10 to 100 | 100 to 1000 nM |  |  | 
CCO[C@@H]1c2nc(cs2)-c2ccc3c(c2)c(c(-c2cc([C@H]4CCN5CCOC[C@@H]5C4)cnc2[C@H](C)OC)n3CC)CC(C)(C)COC(=O)[C@@H]2CCCN(N2)C(=O)[C@H]1NC(=O)[C@H]1[C@H](C)[C@@H]1C [Compound A390, (1r,2R,3S)—N-((6^3S,3S,4S,Z)-3-ethoxy-1^1-ethyl-1^2-(2-((S)-1-methoxyethyl)-5-((8R,9aS)-octahydropyrido [2,1-c][1,4]oxazin-8-yl)pyridin-3-yl)-10,10-dimethyl-5,7-dioxo-6^1,6^2,6^3,6^4,6^5,6^6-hexahydro-1^1H-8-oxa-2 (4,2)-thiazola-1 (5,3)-indola-6 (1,3)-pyridazinacycloundecaphane-4-yl)-2,3-dimethylcyclopropane-1-carboxamide] |  |  |  |  | 100 to 1000 nM |  |  | EC50 [2]: < 5000 nM; IC50 (NCI-H358 (K-Ras G12C)): 100 to 1000 nM
CCn1c(-c2cccnc2[C@H](C)OC)c2c3cc(ccc31)C1=C[C@@H](O)CN(C1)C[C@H](NC(=O)[C@H]1[C@H](C)[C@@H]1C)C(=O)N1CCC[C@H](N1)C(=O)OCC(C)(C)C2 [Compound A424, (1R,2R,3S)—N-((2^3R,6^3S,4S)-1^1-ethyl-23-hydroxy-1^2-(2-((S)-1-methoxyethyl)pyridin-3-yl)-10,10-dimethyl-5,7-dioxo-2^1,2^2,2^3,2^6,6^1,6^2,6^3,6^4,6^5,6^6-decahydro-1^1H-8-oxa-1 (5,3)-indola-6 (1,3)-pyridazina-2 (5,1)-pyridinacycloundecaphane-4-yl)-2,3-dimethylcyclopropane-1-carboxamide] |  | 10 to 100 |  |  | 100 to 1000 nM | 100 to 1000 | 10 to 100 | IC50 (KRAS G12S): 10 to 100 nM; IC50 (KRAS G12V): 10 to 100 nM; EC50 [2]: < 5000 nM; IC50 (NCI-H358 (K-Ras G12C)): 100 to 1000 nM
CCn1c(-c2cccnc2[C@H](C)OC)c2c3cc(ccc31)-c1csc(n1)C[C@H](NC(=O)[C@H](C(C)C)N(C)C(=O)N1CC[C@H]3CN(C)C[C@H]31)C(=O)N1CCC[C@H](N1)C(=O)OCC(C)(C)C2 [Compound A471] | 100 to 1000 |  |  | 10 to 100 | 100 to 1000 nM |  |  | 
CCn1c(-c2cccnc2[C@H](C)OC)c2c3cc(ccc31)-c1csc(n1)C[C@H](NC(=O)[C@H](C(C)C)N(C)C(=O)N1CC3(CCN(C)CC3)C1)C(=O)N1CCC[C@H](N1)C(=O)OCC(C)(C)C2 [Compound A513] |  |  | < 5000 | < 10 | 10 to 100 nM |  |  | 
CCn1c(-c2cccnc2[C@H](C)OC)c2c3cc(ccc31)-c1csc(n1)C[C@H](NC(=O)[C@H](C1CCCC1)N(C)C(=O)N1CCN(C)CC1)C(=O)N1CCC[C@H](N1)C(=O)OCC(C)(C)C2 [Compound A525] |  |  | < 5000 | < 10 | 10 to 100 nM |  |  | 
CCn1c(-c2cccnc2[C@H](C)OC)c2c3cc(ccc31)-c1csc(n1)C[C@H](NC(=O)[C@H](C(C)C)N(C)C(=O)N1CCC(N(C)C)CC1)C(=O)N1CCC[C@H](N1)C(=O)OCC(C)(C)C2 [Compound A571] |  |  | < 5000 | < 10 |  |  |  | IC50 ([3]; KRAS G12C FRET IC50): 100 to 1000 nM
CCn1c(-c2cccnc2[C@H](C)OC)c2c3cc(ccc31)-c1csc(n1)C[C@H](NC(=O)[C@H](C(C)C)N(C)C(=O)N1CCC13CCOCC3)C(=O)N1CCC[C@H](N1)C(=O)OCC(C)(C)C2 [Compound A601] |  |  | < 5000 | < 10 | < 10 nM |  |  | 
